{"source": "patent US20230371814A1", "about": "“WIRELESS THERANOSTIC SMART CONTACT LENS CAPABLE OF MEASURING AND ADJUSTING INTRAOCULAR PRESSURE IN GLAUCOMA PATIENTS” (POSTECH RESEARCH AND BUSINESS DEVELOPMENT FOUNDATION, priority 2022, published 2023)", "experiment": "In vitro release of timolol from the drug reservoir of the flexible DDS", "format": "physicochemical", "description": "An electrochemical reaction of gold was examined in vitro in PBS (pH 7.4) and artificial tears having a constant voltage of 1.85 V. Timolol was released from the drug reservoir by applying a voltage of 1.85 V to an anode and a cathode of a DDS for 5 minutes. A concentration of the released timolol was quantified with a UV-vis spectrometer at an absorbance wavelength of 259 nm.", "data": [{"smiles": "CC(C)(C)NC[C@H](O)COc1nsnc1N1CCOCC1", "note": "[timolol]", "values": [{"measurement": "drug (timolol) released", "setting": "absence of the PVA layer", "result": "less than 50%"}, {"measurement": "timolol released without electrical triggering", "setting": "for 90 minutes, without electrical triggering", "result": "less than 5%"}, {"measurement": "drug (timolol) dissolution", "setting": "presence of PVA", "result": "completely dissolved"}, {"measurement": "time until almost all of the timolol was completely released", "setting": "presence of PVA", "result": "≤ 30", "unit": "min"}, {"measurement": "timolol released within 5 minutes", "setting": "presence of PVA, within 5 minutes", "result": "less than 85%"}, {"measurement": "cumulative release of timolol at each activation", "setting": "three reservoirs activated at 10, 25 and 40 minutes", "result": "significantly enhanced"}, {"measurement": "cumulative release of timolol before activation", "setting": "three reservoirs, until 10 minutes (before first activation)", "result": "no significant release"}]}]}
